Experimental data from patent publication US20230295234A1, “ANTIMICROBIAL PEPTIDOMIMETICS” (SPEXIS AG, priority 2020, published 2023).
Like-named read-outs stand apart in the source and are kept apart here. Bridge positions count the residues as written; N and C are the ends. Square brackets hold non-standard residues; d marks the D form. Peptide text beside a SMILES is read from it. * marks the point of attachment. Val(Nα-amidino) = CC(C)[C@H](NC(=N)N)C(=O)*; Pro(4R-NH2) = N[C@H]1CN[C@H](C(=O)O)C1; Pen = CC(C)(S)[C@H](N)C(=O)O; dDab = NCC[C@@H](N)C(=O)O; Dab = NCC[C@H](N)C(=O)O

Columns and labels:
[1] = tested on: Escherichia coli ATCC 25922
Summary of the method: (§1)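 Activity is measured against peptides serially diluted two-fold in water with 0.002% final Polysorbate 80. The cells are in cation-adjusted MHII broth at roughly 5×10^5 CFU/mL, prepared from a 0.5 McFarland suspension in 0.85% NaCl.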

[2] = tested on: Escherichia coli MCR-1 Af 45
Summary of the method: as §1

[3] = tested on: Klebsiella pneumoniae SSI3010
Summary of the method: as §1

[4] = tested on: human red blood cells (hRBC); assay: Hemolysis of human red blood cells; format: cell-based
Summary of the method: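 PBS-washed human red blood cells (20% v/v) were incubated with peptide at 200 μg/mL for 1 h at 37 °C with shaking. Supernatant OD was read at 540 nm after 8-fold dilution. Hemolysis is expressed as percent of the water control.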

[5] = Mueller-Hinton broth II, 18-20 hours at 35° C.

Escherichia coli ATCC 25922 MIC ([1]; ATCC 25922) | Klebsiella pneumoniae SSI3010 MIC ([3]; SSI3010) | Escherichia coli MCR-1 Af 45 MIC ([2]; MCR-1 Af 45) | SMILES | Escherichia coli MCR-1 Af 45 MIC [2, 5] | Hemolysis at 0.2 g/L ([4]; red cells of human, 1 h) | Escherichia coli ATCC 25922 MIC [1, 5] | Klebsiella pneumoniae SSI3010 MIC [3, 5] | Hemolysis at 0.2 g/L ([4]; 20% hRBC, 1 h at 37° C.)
≤0.125 mg/L | 0.125 mg/L | 0.0625 mg/L | CCCC[C@H](NC(=O)[C@H](CCCNC(=N)N)NC(=O)[C@H](CCN)NC(=O)[C@H]1NC(=O)[C@H](CCCCN)NC(=O)[C@@H](CCN)NC(=O)[C@H]([C@@H](C)O)NC(=O)[C@H](CCN)NC(=O)[C@H](CCCNC(=N)N)NC(=O)[C@H](CC(N)=O)NC(=O)[C@@H](NC(=O)[C@H](Cc2ccc(O)cc2)NC(=O)[C@@H](NC(=O)[C@@H](NC(=O)[C@@H]2CCCN2C(=O)[C@@H](NC(=O)[C@@H]2CCCN2C(=O)[C@H](CCCNC(=N)N)NC(=O)[C@@H](N)CCCCN)C(C)C)[C@@H](C)CC)[C@@H](C)CC)CSSC1(C)C)C(=O)O [Example 73] (HELM PEPTIDE1{K.R.P.V.P.I.I.Y.C.N.R.[Dab].T.[NCC[C@@H](N[*:1])C(=O)[*:2]].K.[Pen].[Dab].R.[Nle]}$PEPTIDE1,PEPTIDE1,9:R3-16:R3$$$V2.0) | – | 0% | – | – | –
0.0625 mg/L | 0.125 mg/L | 0.0625 mg/L | CCCC[C@H](NC(=O)[C@H](CCCNC(=N)N)NC(=O)[C@H](CCN)NC(=O)[C@@H]1CSSC[C@H](NC(=O)[C@H](Cc2ccc(O)cc2)NC(=O)[C@@H](NC(=O)[C@@H](NC(=O)[C@@H]2CCCN2C(=O)[C@@H](NC(=O)[C@H](N)CCCCN)C(C)C)[C@@H](C)CC)[C@@H](C)CC)C(=O)N[C@@H](CC(N)=O)C(=O)N[C@@H](CCCNC(=N)N)C(=O)N[C@@H](CCCNC(=N)N)C(=O)N[C@@H]([C@@H](C)O)C(=O)N[C@H](CCN)C(=O)N[C@@H](CCCCN)C(=O)N1)C(=O)O [Example 1] (HELM PEPTIDE1{[dK].V.P.I.I.Y.C.N.R.R.T.[NCC[C@@H](N[*:1])C(=O)[*:2]].K.C.[Dab].R.[Nle]}$PEPTIDE1,PEPTIDE1,7:R3-14:R3$$$V2.0) | – | 0% | – | – | –
0.125 mg/L | 0.25 mg/L | 0.125 mg/L | CC[C@H](C)[C@H](NC(=O)[C@@H](NC(=O)[C@@H]1CCCN1C(=O)[C@@H](NC(=O)CNC)C(C)C)[C@@H](C)CC)C(=O)N[C@@H](Cc1ccc(O)cc1)C(=O)N[C@H]1CSSC[C@@H](C(=O)N[C@@H](CCN)C(=O)N[C@@H](CCCNC(=N)N)C(=O)N[C@@H](Cc2ccc(O)cc2)C(=O)O)NC(=O)[C@H](CCCCN)NC(=O)[C@@H](CCN)NC(=O)[C@H]([C@@H](C)O)NC(=O)[C@H](CCN)NC(=O)[C@H](CCCNC(=N)N)NC(=O)[C@H](CC(N)=O)NC1=O [Example 30] (HELM PEPTIDE1{[Sar].V.P.I.I.Y.C.N.R.[Dab].T.[NCC[C@@H](N[*:1])C(=O)[*:2]].K.C.[Dab].R.Y}$PEPTIDE1,PEPTIDE1,7:R3-14:R3$$$V2.0) | – | 0% | – | – | –
0.0625 mg/L | 0.125 mg/L | 0.0625 mg/L | CC[C@H](C)[C@H](NC(=O)[C@@H](NC(=O)[C@@H]1CCCN1C(=O)[C@@H](NC(=O)[C@@H]1CCCN1C(=O)[C@H](CCCCN)NC(=O)[C@@H](N)CCCCN)C(C)C)[C@@H](C)CC)C(=O)N[C@@H](Cc1ccc(O)cc1)C(=O)N[C@H]1CSSC[C@@H](C(=O)N[C@@H](CCN)C(=O)N[C@@H](CCCNC(=N)N)C(=O)N[C@H](C(=O)O)C(C)(C)C)NC(=O)[C@H](CCCCN)NC(=O)[C@@H](CCN)NC(=O)[C@H]([C@@H](C)O)NC(=O)[C@H](CCN)NC(=O)[C@H](CCCNC(=N)N)NC(=O)[C@H](CC(N)=O)NC1=O [Example 84] (HELM PEPTIDE1{K.K.P.V.P.I.I.Y.C.N.R.[Dab].T.[NCC[C@@H](N[*:1])C(=O)[*:2]].K.C.[Dab].R.[CC(C)(C)[C@H](N[*:1])C(=O)O]}$PEPTIDE1,PEPTIDE1,9:R3-16:R3$$$V2.0) | – | 0% | – | – | –
– | – | – | CC[C@H](C)[C@H](NC(=O)[C@@H](NC(=O)[C@@H]1CCCN1C(=O)[C@@H](N)C(C)C)[C@@H](C)CC)C(=O)N[C@@H](Cc1ccc(O)cc1)C(=O)N[C@@H]1C(=O)N[C@@H](CC(N)=O)C(=O)N[C@@H](CCCNC(=N)N)C(=O)N[C@@H](CCN)C(=O)N[C@@H]([C@@H](C)O)C(=O)N[C@H](CCN)C(=O)N[C@@H](CCCCN)C(=O)N[C@H](C(=O)N[C@@H](CCN)C(=O)N[C@@H](CCCNC(=N)N)C(=O)N[C@@H](Cc2ccc(O)cc2)C(=O)O)CSSC1(C)C [Example 140] (HELM PEPTIDE1{V.P.I.I.Y.[Pen].N.R.[Dab].T.[NCC[C@@H](N[*:1])C(=O)[*:2]].K.C.[Dab].R.Y}$PEPTIDE1,PEPTIDE1,6:R3-13:R3$$$V2.0) | 0.0625 mg/L | – | 0.0625 mg/L | 0.125 mg/L | 0%
≤0.03125 mg/L | 0.0625 mg/L | 0.0625 mg/L | CC[C@H](C)[C@H](NC(=O)[C@@H]1C[C@@H](N)CN1C(=O)[C@@H](NC(=O)[C@@H]1C[C@@H](O)CN1C(=O)[C@H](CCCCN)NC(=O)[C@@H](N)CCCCN)C(C)C)C(=O)N[C@H](C(=O)N[C@@H](Cc1ccc(O)cc1)C(=O)N[C@@H]1C(=O)N[C@@H](CC(N)=O)C(=O)N[C@@H](CCCNC(=N)N)C(=O)N[C@@H](CCN)C(=O)N[C@@H]([C@@H](C)O)C(=O)N[C@H](CCN)C(=O)N[C@@H](CCCCN)C(=O)N[C@H](C(=O)N[C@@H](CCN)C(=O)N[C@@H](CCCNC(=N)N)C(=O)N[C@@H](Cc2ccc(O)cc2)C(=O)O)CSSC1(C)C)[C@@H](C)O [Example 125, Lys-Lys-Hyp-Val-Pro((4R)NH2)-Ile-Thr-Tyr-Pen-Asn-Arg-Dab-Thr-^DDab-Lys-Cys-Dab-Arg-Tyr] (HELM PEPTIDE1{K.K.[Hyp].V.[N[C@@H]1C[C@@H](C(=O)[*:2])N([*:1])C1].I.T.Y.[Pen].N.R.[Dab].T.[NCC[C@@H](N[*:1])C(=O)[*:2]].K.C.[Dab].R.Y}$PEPTIDE1,PEPTIDE1,9:R3-16:R3$$$V2.0) | – | 0% | – | – | –

SMILES | Escherichia coli ATCC 25922 MIC ([1]; ATCC 25922) | Klebsiella pneumoniae SSI3010 MIC ([3]; SSI3010) | Escherichia coli MCR-1 Af 45 MIC ([2]; MCR-1 Af 45) | Escherichia coli MCR-1 Af 45 MIC [2, 5] | Hemolysis at 0.2 g/L ([4]; red cells of human, 1 h) | Escherichia coli ATCC 25922 MIC [1, 5] | Klebsiella pneumoniae SSI3010 MIC [3, 5] | Hemolysis at 0.2 g/L ([4]; 20% hRBC, 1 h at 37° C.)
CC[C@H](C)[C@H](NC(=O)[C@@H]1C[C@@H](O)CN1C(=O)[C@@H](NC(=N)N)C(C)C)C(=O)N[C@H](C(=O)N[C@@H](Cc1ccc(O)cc1)C(=O)N[C@@H]1C(=O)N[C@@H](CC(N)=O)C(=O)N[C@@H](CCCNC(=N)N)C(=O)N[C@@H](CCN)C(=O)N[C@@H]([C@@H](C)O)C(=O)N[C@H](CCN)C(=O)N[C@@H](CCCCN)C(=O)N[C@H](C(=O)N[C@@H](CCN)C(=O)N[C@@H](CCCNC(=N)N)C(=O)N[C@@H](Cc2ccc(O)cc2)C(=O)O)CSSC1(C)C)[C@@H](C)O [Example 188] (HELM PEPTIDE1{[CC(C)[C@H](NC(=N)N)C(=O)[*:2]].[Hyp].I.T.Y.[Pen].N.R.[Dab].T.[NCC[C@@H](N[*:1])C(=O)[*:2]].K.C.[Dab].R.Y}$PEPTIDE1,PEPTIDE1,6:R3-13:R3$$$V2.0) | 0.125 mg/L | 0.25 mg/L | – | ≤0.125 mg/L | 0% | – | – | –
CC[C@H](C)[C@H](NC(=O)[C@@H]1C[C@@H](N)CN1C(=O)[C@@H](NC(=N)N)C(C)C)C(=O)N[C@H](C(=O)N[C@@H](Cc1ccc(O)cc1)C(=O)N[C@@H]1C(=O)N[C@@H](CC(N)=O)C(=O)N[C@@H](CCCNC(=N)N)C(=O)N[C@@H](CCN)C(=O)N[C@@H]([C@@H](C)O)C(=O)N[C@H](CCN)C(=O)N[C@@H](CCCCN)C(=O)N[C@H](C(=O)N[C@@H](Cc2ccc(O)cc2)C(=O)N[C@@H](CCCNC(=N)N)C(=O)N[C@@H](Cc2ccc(O)cc2)C(=O)O)CSSC1(C)C)[C@@H](C)O [Example 199] ({Val(Nα-amidino)}-[Pro(4R-NH2)]ITY[Pen]NR[Dab]T[dDab]KCYRY-OH; disulfide 5-12) | 0.25 mg/L | 0.25 mg/L | – | 0.125 mg/L | 0% | – | – | –
CC[C@H](C)[C@H](NC(=O)[C@@H]1C[C@@H](O)CN1C(=O)[C@@H](N)C(C)C)C(=O)N[C@H](C(=O)N[C@@H](Cc1ccc(O)cc1)C(=O)N[C@@H]1C(=O)N[C@@H](CC(N)=O)C(=O)N[C@@H](CCCNC(=N)N)C(=O)N[C@@H](CCN)C(=O)N[C@@H]([C@@H](C)O)C(=O)N[C@H](CN)C(=O)N[C@@H](CCCCN)C(=O)N[C@H](C(=O)N[C@@H](CCN)C(=O)N[C@@H](CCCNC(=N)N)C(=O)N[C@@H](Cc2ccc(O)cc2)C(=O)O)CSSC1(C)C)[C@@H](C)O [Example 149] (HELM PEPTIDE1{V.[Hyp].I.T.Y.[Pen].N.R.[Dab].T.[NC[C@@H](N[*:1])C(=O)[*:2]].K.C.[Dab].R.Y}$PEPTIDE1,PEPTIDE1,6:R3-13:R3$$$V2.0) | 0.25 mg/L | 0.5 mg/L | – | 0.25 mg/L | 0% | – | – | –
CC[C@H](C)[C@H](NC(=O)[C@@H]1C[C@@H](O)CN1C(=O)[C@@H](NC(=N)N)C(C)C)C(=O)N[C@H](C(=O)N[C@@H](Cc1ccc(O)cc1)C(=O)N[C@@H]1C(=O)N[C@@H](CC(N)=O)C(=O)N[C@@H](CCCNC(=N)N)C(=O)N[C@@H](CCN)C(=O)N[C@@H](CO)C(=O)N[C@H](CCN)C(=O)N[C@@H](CCCCN)C(=O)N[C@H](C(=O)N[C@@H](CCN)C(=O)N[C@@H](CCN)C(=O)N[C@@H](Cc2ccc(O)cc2)C(=O)O)CSSC1(C)C)[C@@H](C)O [Example 197] (HELM PEPTIDE1{[CC(C)[C@H](NC(=N)N)C(=O)[*:2]].[Hyp].I.T.Y.[Pen].N.R.[Dab].S.[NCC[C@@H](N[*:1])C(=O)[*:2]].K.C.[Dab].[Dab].Y}$PEPTIDE1,PEPTIDE1,6:R3-13:R3$$$V2.0) | 0.0625 mg/L | 0.125 mg/L | – | 0.0625 mg/L | 0% | – | – | –
